“And” between values parts separate entries of the source, which are not always exact repeats. Identical values can stand only once.
Tests used:
[1] = design: method as in PMID 12895128; settings: in CH2Cl2 ref 53; cited from earlier work
[2] = design: method as in PMID 22908122; settings: in CHCl3 ref 59; cited from earlier work
[3] = NIR luminescence decay lifetime monitored at 980 nm; type: physicochemical; settings: for Decay lifetime (τobs): bovine albumin (BSA), air-saturated, 0.1% DMSO
Procedure: Emission, excitation spectra and lifetime were measured on an Edinburgh Analytical Instruments FLS980 lifetime and steady state spectrometer equipped with a 450 W Xe lamp, a 60 W microsecond flash lamp, PMT R928 for the visible emission spectrum, HAMAMATSU R5509-73 PMT with a C9940-02 cooler for the NIR emission spectrum and luminescence lifetime. Excitation and emission spectra were corrected for instrumental functions (including the correction for detector, gratings etc.). All luminescence decays were exponentially tail-fitted by monoexponential functions without deconvolution for the negligible instrumental reference function in the NIR region.

[4] = n-octanol/water partition coefficient (log P); type: physicochemical
Procedure: Equal volumes (2000 mL) of n-octanol and water were thoroughly mixed using an oscillator and separated after 24 h. Yb^3+ complex (0.1 mg each) was then dissolved in 40 mL of the separated n-octanol and the solution and 40 mL of water (previously separated from the mixture) was added. The new water–octanol system was allowed to equilibrate for additional 24 h. After separation, both fractions were analyzed by UV-vis spectra. The log P values were calculated with the following equation:[80]1 log P = log(Coctanol/Cwater)where Coctanol and Cwater refer to the concentrations of Yb^3+ complexes in n-octanol and water, respectively.

[5] = NIR luminescence quantum yield, comparative method vs YbTPP(LOEt); type: physicochemical
Procedure: Quantum yields in solution were determined using a comparative method and the equation: Φs/Φr = (Gs/Gr) × (ηs^2/ηr^2), where the subscripts r and s denote the reference and sample respectively, Φ is the quantum yield, G is the slope from the plot of integrated emission intensity vs. absorbance, and η is the refractive index of the solvent.[79] The reference was YbTPP(LOEt) in CH2Cl2 ([…]).[53] Generally, YbTPP(LOEt) and the solution of Yb^3+ complex with 4 different concentrations were firstly prepared in the corresponding solvents. The absorbance of all the solutions at 410 nm was recorded on an Agilent 8453 UV-vis spectrometer equipped with an Agilent 89090A thermostat (±0.1 °C) and NIR emissions were recorded on an Edinburgh Analytical Instruments FLS980 lifetime and steady state spectrometer with the excitation wavelength at 410 nm under identical conditions. According to the ratio of the slope GYb – x/Gr (x = 1–5, 2c–5c), the relative quantum yield of Yb^3+ complexes could be obtained according to the equation described above. The absorbance values of all the samples and references are below 0.1 and the absorbance values undergo background correction by subtracting the average over a range from 800 to 820 nm. The integrated emission intensity integrated from 880 nm to 1150 nm was obtained by subtracting the blank (integrated emission intensity with only the pure solvent under identical conditions). The estimated error for the quantum yield measurements is 15%. For the quantum yield measured in degassed solution, solutions of Yb^3+ complexes with 4 different concentrations were degassed via 5 freeze–pump–thaw cycles. Then the measurement and calculation were the same as above.

[6] = Stability in solution and aqueous media (absorption / NIR luminescence, dark and 405 nm laser); type: physicochemical
Description: We also measured the ^2D NMR of Yb-4 in CH3OH as an example (Fig. S75 ^†) and only one single peak was observed.
Fig. 2 (a) Spectroscopic evaluation of Yb-4 photostability in water, PBS and FBS with 0.1% DMSO under irradiation of a 405 nm laser (0.2 W cm^–2) (inset: dark stability); (b) spectroscopic evaluation of Yb-4 and Yb-4c stabilities in pH = 5 PBS with 0.1% DMSO under irradiation of a 405 nm laser (0.2 W cm^–2). Emission intensity values were referenced to the emission intensity of Yb^3+ (980 nm) at 0 h.

[7] = DMSO, air-equil., monitored at 980 nm
[8] = DMSO, degassed, monitored at 980 nm
[9] = H2O with 0.1% DMSO, air-equil., monitored at 980 nm
[10] = H2O with 0.1% DMSO, degassed, monitored at 980 nm

Molecule | τobs [3, 7] | τobs [3, 8] | τobs [3, 9] | τobs [3, 10] | Decay lifetime (τobs) ([3]; monitored at 980 nm) | log Po/w [4] | ΦYb ([5]; DMSO, air-equil.) | ΦYb ([5]; DMSO, degassed) | ΦYb ([5]; H2O with 0.1% DMSO, air-equil.) | ΦYb ([5]; H2O with 0.1% DMSO, degassed) | also measured
5,10,15,20-tetraphenylporphyrin-Yb(III)-[(cyclopentadienyl)tris(di(ethyl)phosphito)cobaltate] [YbTPP(LOEt)] |  |  |  |  |  |  |  |  |  |  | NIR luminescence quantum yield of reference [1]: 0.024
C1=Cc2nc1c(-c1ccccc1)c1nc(c(-c3ccccc3)c3ccc([nH]3)c(-c3ccccc3)c3ccc([nH]3)c2-c2ccccc2)C=C1 [TPP, tetraphenylporphyrin] |  |  |  |  |  |  |  |  |  |  | singlet oxygen quantum yield of reference (ΦΔ) [2]: 0.55
OC[C@H]1O[C@@H](Oc2ccc(C3=C4N=C(C(F)=C4F)C(c4ccc(O[C@@H]5O[C@H](CO)[C@@H](O)[C@H](O)[C@H]5O)cc4)=c4c(F)c(F)c5[n]4[Yb+][n]4c3c(F)c(F)c4C(c3ccc(O[C@@H]4O[C@H](CO)[C@@H](O)[C@H](O)[C@H]4O)cc3)=C3N=C(C(F)=C3F)C=5c3ccc(O[C@@H]4O[C@H](CO)[C@@H](O)[C@H](O)[C@H]4O)cc3)cc2)[C@H](O)[C@@H](O)[C@@H]1O.[2H]C([2H])([2H])O[P](=O)(OC([2H])([2H])[2H])[Co-]([CH]1C=CC=C1)([P](=O)(OC([2H])([2H])[2H])OC([2H])([2H])[2H])[P](=O)(OC([2H])([2H])[2H])OC([2H])([2H])[2H] [Yb-1] | 161(5) μs | 165(4) μs | 95(2) μs | 96(3) μs | 100(3) | 1.32 | 16(2) % | 16(2) % | 7.6(0.4) % | 7.7(0.5) % | 
O=C(O)c1ccc(C2=C3C=CC(=N3)C(c3c(F)c(F)c(F)c(F)c3F)=c3ccc4[n]3[Yb+][n]3c2ccc3C(c2c(F)c(F)c(F)c(F)c2F)=C2C=CC(=N2)C=4c2c(F)c(F)c(F)c(F)c2F)cc1.[2H]C([2H])([2H])O[P](=O)(OC([2H])([2H])[2H])[Co-]([CH]1C=CC=C1)([P](=O)(OC([2H])([2H])[2H])OC([2H])([2H])[2H])[P](=O)(OC([2H])([2H])[2H])OC([2H])([2H])[2H] [Yb-2c] | 52(2) μs | 52(2) μs | 38(1) μs | 41(2) μs |  | 1.26 | 6.2(0.2) % | 6.0(0.2) % | 2.5(0.2) % | 2.6(0.2) % | 
FC1=C(F)C2=C(c3ccc(C[P+](c4ccccc4)(c4ccccc4)c4ccccc4)cc3)c3c(F)c(F)c4[n]3[Yb+][n]3c(c(F)c(F)c3=C(c3ccc(C[P+](c5ccccc5)(c5ccccc5)c5ccccc5)cc3)C3=NC(=C4c4ccc(C[P+](c5ccccc5)(c5ccccc5)c5ccccc5)cc4)C(F)=C3F)=C(c3ccc(C[P+](c4ccccc4)(c4ccccc4)c4ccccc4)cc3)C1=N2.[2H]C([2H])([2H])O[P](=O)(OC([2H])([2H])[2H])[Co-]([CH]1C=CC=C1)([P](=O)(OC([2H])([2H])[2H])OC([2H])([2H])[2H])[P](=O)(OC([2H])([2H])[2H])OC([2H])([2H])[2H].[Cl-].[Cl-].[Cl-].[Cl-] [Yb-3] | 205(2) μs | 213(5) μs | 56(2) μs | 58(3) μs | 90(2) | 0.56 | 20(1) % | 21(2) % | 5.1(0.2) % | 5.2(0.3) % | 
C1=CC2=C(c3ccc(C[P+](c4ccccc4)(c4ccccc4)c4ccccc4)cc3)c3ccc4[n]3[Yb+][n]3c(ccc3=C(c3ccc(C[P+](c5ccccc5)(c5ccccc5)c5ccccc5)cc3)C3=NC(=C4c4ccc(C[P+](c5ccccc5)(c5ccccc5)c5ccccc5)cc4)C=C3)=C(c3ccc(C[P+](c4ccccc4)(c4ccccc4)c4ccccc4)cc3)C1=N2.[2H]C([2H])([2H])O[P](=O)(OC([2H])([2H])[2H])[Co-]([CH]1C=CC=C1)([P](=O)(OC([2H])([2H])[2H])OC([2H])([2H])[2H])[P](=O)(OC([2H])([2H])[2H])OC([2H])([2H])[2H].[Cl-].[Cl-].[Cl-].[Cl-] [Yb-3c] | 49(1) μs | 51(2) μs | 25(1) μs | 26(2) μs |  | 0.24 | 5.6(0.2) % | 5.6(0.2) % | 1.4(0.1) % | 1.4(0.1) % | 
C[N+]1(C)CC2(F)C3=NC(=C(c4c(F)c(F)c(F)c(F)c4F)c4c(F)c(F)c5[n]4[Yb+][n]4c(c(F)c(F)c4=C3c3c(F)c(F)c(F)c(F)c3F)=C(c3c(F)c(F)c(F)c(F)c3F)C3=NC(=C5c4c(F)c(F)c(F)c(F)c4F)C(F)=C3F)C2(F)C1.[2H]C([2H])([2H])O[P](=O)(OC([2H])([2H])[2H])[Co-]([CH]1C=CC=C1)([P](=O)(OC([2H])([2H])[2H])OC([2H])([2H])[2H])[P](=O)(OC([2H])([2H])[2H])OC([2H])([2H])[2H].[I-] (centres unmarked) [Yb-4] | 173(4) μs | 187(8) μs | 140 μs and 140(5) μs | 142(5) μs | 145(3) | 1.34 | 17(2) % | 18(2) % | 10% and 10(1) % | 10(1) % | τobs ([3]; ethanol, air-equil., λex = 410 nm, 980 nm): 86(4) μs; τobs ([3]; ethanol, degassed, λex = 410 nm, 980 nm): 99(2) μs; τobs ([3]; glycerol, air-equil., λex = 410 nm, 980 nm): 192(4) μs; τobs ([3]; glycerol, degassed, λex = 410 nm, 980 nm): 195(5) μs; τobs ([3]; i-propanol, air-equil., λex = 410 nm, 980 nm): 110(5) μs; τobs ([3]; i-propanol, degassed, λex = 410 nm, 980 nm): 120(3) μs; τobs ([3]; methanol, air-equil., λex = 410 nm, 980 nm): 68(2) μs; τobs ([3]; methanol, degassed, λex = 410 nm, 980 nm): 74(3) μs; τobs ([3]; t-butanol, air-equil., λex = 410 nm, 980 nm): 117(4) μs; τobs ([3]; t-butanol, degassed, λex = 410 nm, 980 nm): 127(3) μs; ΦYb and τobs in H2O relative to Yb-4c ([5]; H2O, air-saturated): 4 fold; photostability ([6]; pH = 5 PBS with 0.1% DMSO, 405 nm laser 0.2 W cm^–2): photostable over 4 h; NIR luminescence under continuous irradiation ([6]; water, PBS and FBS with 0.1% DMSO, 405 nm laser, 0.2 W cm^–2): did not significantly change; dark stability ([6]; water, PBS and FBS with 0.1% DMSO, NIR luminescence): high dark stability over 48 h
C[N+]1(C)CC2C3=NC(=C(c4c(F)c(F)c(F)c(F)c4F)c4ccc5[n]4[Yb+][n]4c(ccc4=C3c3c(F)c(F)c(F)c(F)c3F)=C(c3c(F)c(F)c(F)c(F)c3F)C3=NC(=C5c4c(F)c(F)c(F)c(F)c4F)C=C3)C2C1.[2H]C([2H])([2H])O[P](=O)(OC([2H])([2H])[2H])[Co-]([CH]1C=CC=C1)([P](=O)(OC([2H])([2H])[2H])OC([2H])([2H])[2H])[P](=O)(OC([2H])([2H])[2H])OC([2H])([2H])[2H].[I-] (centres unmarked) [Yb-4c] | 49(2) μs | 50(2) μs | 35 μs and 35(1) μs | 38(2) μs |  | 1.33 | 5.4(0.2) % | 5.5(0.2) % | 2.3% and 2.3(0.2) % | 2.4(0.1) % | photobleaching ([6]; pH = 5 PBS with 0.1% DMSO, 405 nm laser 0.2 W cm^–2, 4 h): 55%
